Results published in ChEMBL document CHEMBL6109146, “Discovery of New Pyrazolone Carbothioamide Derivatives as Potent Antifungal Agents for the Treatment of Candidiasis and Cryptococcosis” (J Med Chem, 2025).
Converted amounts (≈) assume the structure as drawn. The source made the active and inactive calls. The calls are words filed in the database; no cut-off is given here.

Experiments:
[1] = test system: Nakaseomyces glabratus; assay: Antifungal activity against Candida glabrata 0161 assessed as inhibition of fungal growth incubated up to 72 hrs by microplate reader analysis; type: functional, organism-based; conditions: dose 0.13-0.00049 µg/ml
[2] = test system: Nakaseomyces glabratus; assay: Fungicidal activity against Candida glabrata 0161 incubated for 48 hrs by time-kill kinetics analysis; type: functional
[3] = test system: Nakaseomyces glabratus; assay: Antifungal activity against Candida glabrata 0161 assessed as inhibition of fungal growth incubated for 48 to 72 hrs by microplate reader analysis; type: functional; conditions: time 48-72 hrs
[4] = test system: Cryptococcus neoformans; assay: Induction of oxidative damage in Cryptococcus neoformans H99 assessed as increase in MDA level at 4 microg/ml incubated for 24 hrs relative to control; type: functional; conditions: dose 4 µg/ml
[5] = test system: Candida albicans; assay: Antifungal activity against Candida albicans 103 assessed as inhibition of fungal growth incubated for 48 to 72 hrs by microplate reader analysis; type: functional, organism-based; conditions: time 48-72 hrs
[6] = Tmax in male ICR mouse at 2 mg/kg, iv measured after 24 hrs by LC-MS/MS analysis; type: ADME, organism-based; conditions: in vivo
[7] = test system: Nakaseomyces glabratus; assay: Induction of ROS accumulation in Candida glabrata 0161 assessed as increase in intracellular ROS level by measuring intense green fluorescence incubated for 24 hrs by DCFH-DA probe based fluorescence microscopic analysis; type: functional, organism-based
[8] = test system: Nakaseomyces glabratus; assay: Antifungal activity against Candida glabrata 0161 assessed as inhibition of fungal growth at 32 microg/ml incubated for 48 hrs by spot-plating assay; type: functional, organism-based; conditions: dose 32.0 µg/ml
[9] = test system: Cryptococcus neoformans; assay: Inhibition of biofilm formation in Cryptococcus neoformans H99 at 32 microg/ml incubated for 24 hrs by XTT reagent based assay relative to control; type: functional
[10] = Antifungal activity against Cryptococcus gattii 01063P assessed as inhibition of fungal growth incubated for 48 to 72 hrs by microplate reader analysis; type: functional; conditions: time 48-72 hrs
[11] = test system: Cryptococcus neoformans; assay: Antifungal activity against Cryptococcus neoformans H99 assessed as inhibition of fungal growth at 0.5 to 4 microg/ml incubated for 48 hrs by spot-plating assay; type: functional, organism-based; conditions: dose 0.5-4 µg/ml
[12] = test system: Nakaseomyces glabratus; assay: Antifungal activity against Candida glabrata 0161 assessed as inhibition of fungal cell colony formation at 0.5 microg/ml incubated for 48 hrs by spot-plating assay; type: functional, organism-based; conditions: dose 0.5 µg/ml
[13] = test system: Cryptococcus neoformans; assay: Antifungal activity against Cryptococcus neoformans H99 infected in cryptococcosis female ICR mouse model assessed as neat arrangement of neuronal cells at 5 to 20 mg/kg, ip pre-infected with fungi for 3 hrs followed by compound administration and measured after 5 days by H and E staining based analysis; type: functional, organism-based; conditions: dose 5-20 mg/kg, time 5.0 day
[14] = Volume of distribution at steady state in male ICR mouse at 2 mg/kg, iv measured after 24 hrs by LC-MS/MS analysis; type: ADME, organism-based; conditions: in vivo, read-out: Vdss
[15] = test system: Nakaseomyces glabratus; assay: Upregulation of GPX1 gene expression in Candida glabrata 0161 incubated for 8 hrs by qRT-PCR analysis; type: functional
[16] = test system: Nakaseomyces glabratus; assay: Reduction in intracellular free iron ions level in Candida glabrata 0161 incubated for 24 hrs by absorbance based analysis; type: functional
[17] = test system: Cryptococcus neoformans; assay: Antifungal activity against Cryptococcus neoformans H99 assessed as inhibition of fungal cell colony formation at 0.5 microg/ml incubated for 48 hrs by spot-plating assay; type: functional, organism-based; conditions: dose 0.5 µg/ml
[18] = test system: Nakaseomyces glabratus; assay: Antifungal activity against Candida glabrata 0161 assessed as inhibition of fungal growth at 0.5 to 32 microg/ml incubated for 48 hrs by spot-plating assay; type: functional, organism-based; conditions: dose 0.5-32 µg/ml
[19] = test system: Cryptococcus neoformans; assay: Upregulation of TSA1 gene expression in Cryptococcus neoformans H99 at 4 microg/ml incubated for 8 hrs by qRT-PCR analysis; type: functional; conditions: dose 4.0 µg/ml
[20] = Reduction in intracellular free iron ions level in Cryptococcus neoformans H99 at 4 microg/ml incubated for 24 hrs by absorbance based analysis relative to control; type: functional; set-up: scale not given: the % may be the effect or the level left; conditions: dose 4 µg/ml
[21] = AUC (0 to infinity) in male ICR mouse at 20 mg/kg, po measured after 24 hrs by LC-MS/MS analysis; type: ADME, organism-based; conditions: in vivo
[22] = test system: Cryptococcus neoformans; assay: Antifungal activity against Cryptococcus neoformans HN-68 assessed as inhibition of fungal growth incubated for 48 to 72 hrs by microplate reader analysis; type: functional; conditions: time 48-72 hrs
[23] = AUC (0 to t) in male ICR mouse at 20 mg/kg, po measured after 24 hrs by LC-MS/MS analysis; type: ADME, organism-based; conditions: in vivo
[24] = test system: Cryptococcus neoformans; assay: Antifungal activity against Cryptococcus neoformans H99 assessed as inhibition of fungal growth by measuring fold increase in MIC in presence of 10% serum containing transferrin-bound ferric iron and free iron; type: functional
[25] = test system: Cryptococcus neoformans; assay: Antifungal activity against Cryptococcus neoformans H99 infected in cryptococcosis female ICR mouse model assessed as reduction in vacuolation in brain at 5 mg/kg, ip pre-infected with fungi for 3 hrs followed by compound administration and measured after 5 days by H and E staining based analysis; type: functional, organism-based; conditions: time 5.0 day
[26] = test system: Cryptococcus neoformans; assay: Antifungal activity against Cryptococcus neoformans H99 infected in cryptococcosis female ICR mouse model assessed as reduction in fungal burden in brain at 20 mg/kg, po pre-infected with fungi for 3 hrs followed by compound administration and measured after 5 days; type: functional, organism-based; conditions: time 5.0 day
[27] = test system: Cryptococcus neoformans; assay: Induction of morphological changes in Cryptococcus neoformans H99 assessed as vacuole lysis at 4 microg/ml incubated for 8 hrs by transmission electron microscopic analysis; type: functional, organism-based; conditions: dose 4.0 µg/ml
[28] = test system: Nakaseomyces glabratus; assay: Inhibition of matured biofilm in Candida glabrata 0161 at 2 to 32 microg/ml incubated for 24 hrs by XTT reagent based assay; type: functional, organism-based; conditions: dose 2-32 µg/ml
[29] = Clearance in male ICR mouse at 2 mg/kg, iv measured after 24 hrs by LC-MS/MS analysis; type: ADME, organism-based; conditions: in vivo
[30] = AUC (0 to t) in male ICR mouse at 2 mg/kg, iv measured after 24 hrs by LC-MS/MS analysis; type: ADME, organism-based; conditions: in vivo
[31] = test system: Nakaseomyces glabratus; assay: Antifungal activity against Candida glabrata 0161 assessed as inhibition of fungal growth in presence of Fe(II) ion; type: functional, organism-based
[32] = test system: Cryptococcus neoformans; assay: Inhibition of capsule formation in Cryptococcus neoformans H99 at 4 microg/ml incubated for 24 hrs by light microscopic analysis; type: functional, organism-based; conditions: dose 4.0 µg/ml
[33] = test system: Cryptococcus neoformans; assay: Induction of morphological changes in Cryptococcus neoformans H99 assessed as mitochondrial fragmentation at 4 microg/ml incubated for 8 hrs by transmission electron microscopic analysis; type: functional, organism-based; conditions: dose 4.0 µg/ml
[34] = test system: Nakaseomyces glabratus; assay: Antifungal activity against Candida glabrata 0161 infected in candidiasis female ICR mouse model assessed as reduction in detachment of renal tubular epithelial cells at 20 mg/kg, ip pre-infected with fungi for 3 hrs followed by compound administration and measured after 5 days by H and E staining based analysis; type: functional, organism-based; conditions: time 5.0 day
[35] = test system: Candida glabrata; assay: Binding affinity to Candida glabrata KIX domain assessed as inhibition constant
[36] = test system: Nakaseomyces glabratus; assay: Fungistatic activity against Candida glabrata 0161 assessed as inhibition of fungal growth at 0.031 microg/ml incubated up to 72 hrs by microplate reader analysis; type: functional, organism-based; conditions: dose 0.031 µg/ml
[37] = test system: Cryptococcus neoformans; assay: Inhibition of matured biofilm in Cryptococcus neoformans H99 at 2 to 32 microg/ml incubated for 24 hrs by XTT reagent based assay; type: functional, organism-based; conditions: dose 2-32 µg/ml
[38] = test system: Nakaseomyces glabratus; assay: Antifungal activity against Candida glabrata 0161 assessed as inhibition of fungal growth at <0.0078 microg/ml incubated for 72 hrs by microplate reader analysis; type: functional, organism-based; conditions: dose < 0.0078 µg/ml
[39] = test system: Cryptococcus neoformans; assay: Induction of morphological changes in Cryptococcus neoformans H99 assessed as mitochondrial lysis at 4 microg/ml incubated for 8 hrs by transmission electron microscopic analysis; type: functional, organism-based; conditions: dose 4.0 µg/ml
[40] = test system: Nakaseomyces glabratus; assay: Antifungal activity against Candida glabrata 0161 assessed as inhibition of fungal growth in presence of Fe(III) ion; type: functional, organism-based

## Nc1cc(=O)n(C(=S)Nc2ccc(C3CCCCC3)cc2)[nH]1
[1]
  Activity: Dose-dependent-effect
[2]
  MFC: 2 µg/mL (≈ 6.32 µM)
[3]
  MIC80: 0.38 nM (≈ 0.12 ng/mL)
[4]
  Activity: ~20%
[5]
  Activity: Active
[6]
  Tmax: 4.98 min
[7]
  Activity: Active
[8]
  Activity: Moderate_effect
[9]
  inhibition at 32 µg/mL: 77%
[10]
  MIC80: 1.2 10^-4 ug/ml
[11]
  Activity: Active
[12]
  Activity: Active
[13]
  Activity: Active
[14]
  Vd: 1.47 L/kg
[15]
  Activity: Active
[16]
  Activity: Active
[17]
  Activity: Active
[18]
  Activity: Active
[19]
  Activity: Active
[20]
  Activity: ~80%
[21]
  AUC(0-inf): 4740 ng·h/mL
[22]
  MIC80: 1.2 10^-4 ug/ml
[23]
  AUC(0-t) at 24 h: 4600 ng·h/mL
[24]
  fold change (FC): ~1000
[25]
  Activity: Not active; Slight Vacuolation Observed
[26]
  Activity: Active
[27]
  Activity: Active
[28]
  inhibition: Moderate_effect
[29]
  clearance: 16.2 mL/min/kg
[30]
  AUC(0-t) at 24 h: 2040 ng·h/mL
[31]
  Activity: inactive
[32]
  inhibition: Active
[33]
  Activity: Active
[34]
  Activity: Active
[35]
  K: 174 µM
[36]
  Activity: Active; Significantly Better Activity Observed Than Fluconazole At 8 Microg/Ml
[37]
  inhibition: Active; Better Inhibitory Effect Observed Under High Concentration
[38]
  Activity: Not active; Decrease In Inhibitory Potency Observed
[39]
  Activity: Active
[40]
  Activity: inactive
